The text below walks through data of paper PMC10114720.

The nature of series [1]: monoprotic acid or base: log K of the neutral species extrapolated from the linear regression of D on the neutral fraction (from pKa and pH; the paper's eq. for monoprotic IOCs), the slope giving K of the neutral species; replicates column holds the table's 95% confidence limits. PDMS sheets cleaned by Soxhlet with ethyl acetate; batch shaking method with a mixture of all chemicals at several PDMS-mass to water-volume ratios and spiked levels; vials shaken on an orbital shaker at room temperature in the dark, sampled at two equilibration times; PDMS extracts and water quantified by LC-HRMS (Orbitrap); D from the slope of C_PDMS on C_w or their ratio. The following applies: PDMS (polydimethylsiloxane silicone sheet); phosphate buffer at three target pH values (the paper's methods).

Series [2] can be described thus: PDMS sheets cleaned by Soxhlet with ethyl acetate; batch shaking method with a mixture of all chemicals at several PDMS-mass to water-volume ratios and spiked levels; vials shaken on an orbital shaker at room temperature in the dark, sampled at two equilibration times; PDMS extracts and water quantified by LC-HRMS (Orbitrap); D from the slope of C_PDMS on C_w or their ratio; value is the mean over that pH's experiments (individual experiments in the SI's concentrations table), sd is the table's stdev. The note with it: PDMS (polydimethylsiloxane silicone sheet), phosphate buffer at three target pH values (the paper's methods).

In the case of `CCC1(c2ccccc2)C(=O)NCNC1=O`, the “log K PDMS/w (neutral species)” value in series [1] is 1.057 log units; D and K as the pape. In addition, the “log D PDMS/w (apparent distribution ratio at the stated pH)” value in series [2] (pH 3) is 1.032 log units; D and K as the pape.

As for `c1ccc2c(c1)[nH]c1cnccc12`, in series [1], the “log K PDMS/w (neutral species)” value was 2.353 log units; D and K as the pape. Further, the “log D PDMS/w (apparent distribution ratio at the stated pH)” value in series [2] (pH 3) is 1.471 log units; D and K as the pape; in series [2] (pH 7.4), 2.208 log units; D and K as the pape; in series [2] (pH 11.5), 2.227 log units; D and K as the pape.

`Cc1ccc2[nH]nnc2c1`: the “log K PDMS/w (neutral species)” value in series [1] was 0.3619 log units; D and K as the pape. The “log D PDMS/w (apparent distribution ratio at the stated pH)” value in series [2] (pH 3) was 0.336 log units; D and K as the pape; in series [2] (pH 7.4), 0.308 log units; D and K as the pape; in series [2] (pH 11.5), -0.64 log units; D and K as the pape.

Regarding `CCNS(=O)(=O)c1ccccc1C`, in series [1], the “log K PDMS/w (neutral species)” value is 0.5936 log units; D and K as the pape. Further, the “log D PDMS/w (apparent distribution ratio at the stated pH)” value was 0.51 log units; D and K as the pape in series [2] (pH 3); 0.4188 log units; D and K as the pape in series [2] (pH 7.4); 0.4886 log units; D and K as the pape in series [2] (pH 11.5).

Take `NC12CC3CC(CC(C3)C1)C2`: the “log K PDMS/w (neutral species)” value in series [1] was 2.916 log units; D and K as the pape.

Consider `CCNC(=O)[C@@H](C)OC(=O)Nc1ccccc1`, for which the “log K PDMS/w (neutral species)” value in series [1] is -0.07551 log units; D and K as the pape. Also, the “log D PDMS/w (apparent distribution ratio at the stated pH)” value in series [2] (pH 3) is 0.635 log units; D and K as the pape; in series [2] (pH 7.4), 0.5527 log units; D and K as the pape; in series [2] (pH 11.5) it was 0.7717 log units; D and K as the pape.

On to `c1ccc(-c2ccc(C(c3ccccc3)n3ccnc3)cc2)cc1` (stereo not drawn), for which the “log K PDMS/w (neutral species)” value in series [1] was 4.281 log units; D and K as the pape. Further, the “log D PDMS/w (apparent distribution ratio at the stated pH)” value in series [2] (pH 3) was 2.122 log units; D and K as the pape; in series [2] (pH 7.4), 4.209 log units; D and K as the pape; in series [2] (pH 11.5), 4.169 log units; D and K as the pape.

For `O=C(O)Cc1ccccc1Nc1c(Cl)cccc1Cl`, the “log K PDMS/w (neutral species)” value in series [1] was 1.867 log units; D and K as the pape.

`CSc1nc(NC2CC2)nc(NC(C)(C)C)n1`: the “log K PDMS/w (neutral species)” value in series [1] was 2.78 log units; D and K as the pape. The “log D PDMS/w (apparent distribution ratio at the stated pH)” value is 2.006 log units; D and K as the pape in series [2] (pH 3); 2.689 log units; D and K as the pape in series [2] (pH 7.4); 2.624 log units; D and K as the pape in series [2] (pH 11.5).

Turning to `O=c1c2ccccc2[nH]c2ccccc12`, the “log K PDMS/w (neutral species)” value in series [1] is 1.406 log units; D and K as the pape. Moreover, the “log D PDMS/w (apparent distribution ratio at the stated pH)” value in series [2] (pH 3) is 1.351 log units; D and K as the pape; in series [2] (pH 7.4), 1.251 log units; D and K as the pape; in series [2] (pH 11.5), 1.334 log units; D and K as the pape.

For `CC(CCc1ccccc1)NCC(O)c1ccc(O)c(C(N)=O)c1` (stereo not drawn), the “log D PDMS/w (apparent distribution ratio at the stated pH)” value in series [2] (pH 3) is -0.855 log units; D and K as the pape; in series [2] (pH 7.4) it was -0.2383 log units; D and K as the pape.

For `CC(C)(C)c1ccc(S(N)(=O)=O)cc1`, the “log K PDMS/w (neutral species)” value in series [1] is 1.285 log units; D and K as the pape. Further, the “log D PDMS/w (apparent distribution ratio at the stated pH)” value in series [2] (pH 3) was 1.11 log units; D and K as the pape; in series [2] (pH 7.4) it was 1.067 log units; D and K as the pape; in series [2] (pH 11.5), 1.073 log units; D and K as the pape.

On to `COCCc1ccc(OCC(O)CNC(C)C)cc1` (stereo not drawn), for which the “log D PDMS/w (apparent distribution ratio at the stated pH)” value in series [2] (pH 3) was 0.28 log units; D and K as the pape; in series [2] (pH 7.4) it was -0.003333 log units; D and K as the pape.

Regarding `c1ccc2[nH]nnc2c1`, the “log K PDMS/w (neutral species)” value in series [1] was 0.1268 log units; D and K as the pape. Besides, the “log D PDMS/w (apparent distribution ratio at the stated pH)” value in series [2] (pH 3) is 0.055 log units; D and K as the pape; in series [2] (pH 7.4), 0.06625 log units; D and K as the pape.

`Clc1ccc2n[nH]nc2c1`: the “log K PDMS/w (neutral species)” value in series [1] is 1.144 log units; D and K as the pape. Also, the “log D PDMS/w (apparent distribution ratio at the stated pH)” value in series [2] (pH 3) is 0.7386 log units; D and K as the pape; in series [2] (pH 7.4) it was 0.79 log units; D and K as the pape; in series [2] (pH 11.5) it was 0.065 log units; D and K as the pape.

In the case of `CCNc1ccc2c(C)cc(=O)oc2c1`, the “log K PDMS/w (neutral species)” value in series [1] is 2.015 log units; D and K as the pape. In addition, the “log D PDMS/w (apparent distribution ratio at the stated pH)” value was 1.914 log units; D and K as the pape in series [2] (pH 3); 1.863 log units; D and K as the pape in series [2] (pH 7.4); 1.825 log units; D and K as the pape in series [2] (pH 11.5).

Turning to `c1ccc2[nH]c(-c3cscn3)nc2c1`, the “log K PDMS/w (neutral species)” value in series [1] was 1.855 log units; D and K as the pape. Besides, the “log D PDMS/w (apparent distribution ratio at the stated pH)” value in series [2] (pH 3) is 0.5417 log units; D and K as the pape; in series [2] (pH 7.4), 1.69 log units; D and K as the pape; in series [2] (pH 11.5), 1.693 log units; D and K as the pape.

Consider `Cc1cc(=O)oc2cc(N)ccc12`, for which, in series [1], the “log K PDMS/w (neutral species)” value was 0.9136 log units; D and K as the pape. Moreover, the “log D PDMS/w (apparent distribution ratio at the stated pH)” value was 0.7917 log units; D and K as the pape in series [2] (pH 3); 0.8008 log units; D and K as the pape in series [2] (pH 7.4); 0.8475 log units; D and K as the pape in series [2] (pH 11.5).

Take `CCc1ccc(CCOc2ccc(CC3SC(=O)NC3=O)cc2)nc1` (stereo not drawn): the “log D PDMS/w (apparent distribution ratio at the stated pH)” value in series [2] (pH 3) was 0.7792 log units; D and K as the pape; in series [2] (pH 7.4) it was 2.087 log units; D and K as the pape; in series [2] (pH 11.5), -0.02556 log units; D and K as the pape.

In the case of `CCOC(=O)NCCOc1ccc(Oc2ccccc2)cc1`, the “log K PDMS/w (neutral species)” value in series [1] is 3.121 log units; D and K as the pape. Besides, the “log D PDMS/w (apparent distribution ratio at the stated pH)” value in series [2] (pH 3) is 3.077 log units; D and K as the pape; in series [2] (pH 7.4), 2.994 log units; D and K as the pape; in series [2] (pH 11.5), 2.967 log units; D and K as the pape.

For `O=C1Nc2ccc(Cl)cc2C(C#CC2CC2)(C(F)(F)F)O1` (stereo not drawn), in series [1], the “log K PDMS/w (neutral species)” value is 2.899 log units; D and K as the pape. Besides, the “log D PDMS/w (apparent distribution ratio at the stated pH)” value is 2.835 log units; D and K as the pape in series [2] (pH 3); 2.884 log units; D and K as the pape in series [2] (pH 7.4).

`c1ccc2sc(NC3CCCCC3)nc2c1`: the “log K PDMS/w (neutral species)” value in series [1] was 3.105 log units; D and K as the pape. Also, the “log D PDMS/w (apparent distribution ratio at the stated pH)” value is 2.092 log units; D and K as the pape in series [2] (pH 3); 3.079 log units; D and K as the pape in series [2] (pH 7.4); 3.04 log units; D and K as the pape in series [2] (pH 11.5).

Consider `Nc1nc2ccccc2[nH]1`, for which the “log D PDMS/w (apparent distribution ratio at the stated pH)” value in series [2] (pH 7.4) was -0.58 log units; D and K as the pape; in series [2] (pH 11.5), -0.51 log units; D and K as the pape.

`CCc1cccc(C)c1N(C(=O)C(=O)O)C(C)C(=O)O` (stereo not drawn): the “log D PDMS/w (apparent distribution ratio at the stated pH)” value in series [2] (pH 3) is 1.878 log units; D and K as the pape; in series [2] (pH 7.4) it was 3.06 log units; D and K as the pape; in series [2] (pH 11.5), 3.008 log units; D and K as the pape.

On to `CC(C)(c1cc(Br)c(O)c(Br)c1)c1cc(Br)c(O)c(Br)c1`, for which the “log D PDMS/w (apparent distribution ratio at the stated pH)” value is 4.46 log units; D and K as the pape in series [2] (pH 3); 2.944 log units; D and K as the pape in series [2] (pH 7.4).

On to `COC(=O)Nc1nc2ccc(C(=O)c3ccccc3)cc2[nH]1`, for which the “log D PDMS/w (apparent distribution ratio at the stated pH)” value in series [2] (pH 3) is 1.465 log units; D and K as the pape; in series [2] (pH 7.4) it was 1.732 log units; D and K as the pape; in series [2] (pH 11.5), 1.506 log units; D and K as the pape.

For `CNC(=O)Oc1cccc2ccccc12`, the “log K PDMS/w (neutral species)” value in series [1] was 1.106 log units; D and K as the pape.

On to `N[C@@H](Cc1cc(I)c(Oc2cc(I)c(O)c(I)c2)c(I)c1)C(=O)O`, for which the “log D PDMS/w (apparent distribution ratio at the stated pH)” value in series [2] (pH 3) was 0.632 log units; D and K as the pape; in series [2] (pH 7.4), 0.2933 log units; D and K as the pape.

On to `Oc1c(Br)cc(Cl)cc1Cc1cc(Cl)cc(Br)c1O`, for which the “log D PDMS/w (apparent distribution ratio at the stated pH)” value is 3.724 log units; D and K as the pape in series [2] (pH 3); 2.256 log units; D and K as the pape in series [2] (pH 7.4); 0.555 log units; D and K as the pape in series [2] (pH 11.5).

Consider `O=C(Nc1ccc(Cl)c(Cl)c1)c1cc(Cl)cc(Cl)c1O`, for which the “log K PDMS/w (neutral species)” value in series [1] was 3.883 log units; D and K as the pape.
